# Values joined by “and” are separate entries in the source; they are usually repeats but may differ in a detail not shown here. Identical values can stand only once.
# Legend:
# rat brain [1] = test: Microdialysis of extracellular glutamate during NMDA infusion; format: in vivo, Sprague Dawley rats; conditions: NMDA infusion phase, 0.3-mM NMDA via microdialysis probe; baseline phase 0.557 μM
# Text: (§1) 3.1.1 Animal preparation. For the in vivo experiments, 8-9-week-old male Sprague Dawley rats weighing 275-390 g were used (Charles Rivers Laboratory, Inc., MA, United States). The use of animals for the proposed experimental protocol was approved by the Institutional Research Board Committee of Johns Hopkins Medical Institute (RA16M225). The hair was shaved from the scalp of each rat for improved optical/acoustic coupling for transcranial PA recording. The head of the anesthetized rat was fixed to a stable position using a standard stereotaxic device. This fixation procedure was required to prevent any unpredictable movement during PA recording of neural activities.
# 3.1.2 Microdialysis setup. The microdialysis probe consists of a shaft with a semipermeable hollow membrane tip, which is connected to inlet and outlet tubing. The extracellular fluid samples were continuously acquired before and after the infusion of 0.3-mM NMDA through the inlet of the microdialysis probe (FIG. 22A). Each acquisition of extracellular fluid sample took 20 min with 2 μL/min flow rate. From the samples, the change of glutamate concentration was measured.
# 3.1.3 In vivo experimental protocol. […] PA data acquisition was continuously performed for 40 min to be correlated with the glutamate concentration change measured by microdialysis with 20-min intervals. […]
# rat brain [2] = test: PA recording of neural activity index during NMDA infusion; format: in vivo, Sprague Dawley rats
# Text: as §1
# 3.1.3 In vivo experimental protocol. The in vivo protocol was designed to have two different phases: baseline and NMDA infusion (FIG. 22B). PA data acquisition was continuously performed for 40 min to be correlated with the glutamate concentration change measured by microdialysis with 20-min intervals. The baseline phase was designed to confirm its stable neural activity before the NMDA infusion. […]
smiles,measurement,setting,value
CN[C@H](CC(=O)O)C(=O)O [NMDA],extracellular glutamate concentration,rat brain [1],0.000643 mM and 0.000648 mM
same,increase of neural activity index estimated by PA recording,"rat brain [2]; 30 min of NMDA infusion, after VSD and Lexiscan administration",up to 3.27 times
same,time at which the increase of index is saturated,rat brain [2]; from the start of NMDA infusion,10 to 15 min

# Source: US20210393807A1, “PHOTOACOUSTIC VOLTAGE-SENSITIVE DYES FOR IN VIVO IMAGING” (The Johns Hopkins University, priority 2016, published 2021)
